Marks after values point to notes of the source that are not given here.
Columns and labels:
[1] = test system: human non-small cell lung cancer NCI-H2126 cell; assay: Cytotoxic action on NCI-H2126 cells (WST-8, 96 hr); type: cell-based; conditions: NCI-H2126, 96 hr
Description: (§1) The cytotoxic action of the compound of the present invention against human cancer cells was evaluated in vitro. In this experiment, (+)-JQ1 (Nature volume 468, pages 1067-1073 (23 Dec. 2010)) known to have an inhibitory activity on the binding of BRD4 protein and a ligand therefor was used as a positive control drug. Respective cells were suspended in 10% FBS/RPMI1640, seeded in a 96 well plate and cultured at 5% CO2, 37° C. overnight. A test compound dissolved in DMSO was diluted with 10% FBS/RPMI1640 and added and the cells were further cultured for 96 hr. After culturing, the viable cell number was measured using a cell number measurement WST-8 kit (Kishida Chemical Co., Ltd.). As a control, the measurement was performed under conditions free of the test compound. The cytotoxic activity of the compound of the present invention against human prostate cancer LNCaP cells is shown in IC50 value in Table 1. The IC50 value is a concentration of the compound showing 50% cell survival rate when the cell survival rate thereof under compound untreated condition is 100%. It was calculated from the straight line connecting the cell survival rate at two points enclosing the 50% cell survival rate and the compound concentration. […]

[2] = test system: human uterus cervix cancer HeLa cell; assay: Cytotoxic action on HeLa cells (WST-8, 96 hr); type: cell-based
Description: as §1

[3] = test system: human multiple myeloma MM.1S cell; assay: Cytotoxic action on MM.1S cells (WST-8, 96 hr); type: cell-based; conditions: MM1.S
Description: as §1

[4] = test system: human acute myeloid leukemia MV-4-11 cell transplanted mouse; assay: Antitumor effect of 1 week intermittent administration to MV-4-11 cell transplanted mouse (tail vein, days 1 and 8); type: in vivo; conditions: tumor weight on day 15
Description: The in vivo antitumor effect of the compound of the present invention was studied using human acute myeloid leukemia MV-4-11 cell transplanted mouse. MV-4-11 cells were subcutaneously transplanted into the inguinal region of male, 6-week-old BALB/c nude mouse (5×10^6 cells/mouse). The compound of the present invention was administered into the tail vein on days 1 and 8 from the time point when the assumed tumor volume determined from ½ab^2 (a is major axis and b is minor axis of tumor) reached about 200 mm^3 (day 1). The control group was administered with a solvent, 10% Kolliphor ELP/5% ethanol/85% saline solution. On day 15, the tumor was isolated, the weight was measured, and the tumor growth inhibitory rate IR (%) was calculated by the following formula. tumor growth inhibitory rate IR (%)={1−(average tumor weight of administration group/average tumor weight of nonadministration control group)}×100(%)

[5] = test system: Human breast cancer MDA-MB-436 cells; assay: Cytotoxic action on MDA-MB-436 cells (WST-8, 96 hr); type: cell-based; conditions: Homo sapiens
Description: The cytotoxic action of the compound of the present invention against cancer cells that acquired resistance to conventional BRD4 protein degradation inducing agents was evaluated in vitro. In this experiment, ARV-771 (Proc Natl Acad Sci USA. volume 113, pages 7124-7129 (28 Jun. 2016)) and MZ1 (ACS Chem Biol. Volume 10, pages 1770-1777 (21 Aug. 2015)), in which a ligand for VHL and BRD4 protein inhibitor are linked, were used as a conventional BRD4 protein degradation inducing agent serving as a comparison control. Human breast cancer MDA-MB-436 cells and MDA-MB-436 cells that acquired resistance to conventional BRD4 protein degradation inducing agents (MDA-MB-436 w/o2 cells) were suspended in 10% FBS/RPMI1640, seeded in a 96 well plate and cultured at 5% CO2, 37° C. overnight. A test compound dissolved in DMSO was diluted with 10% FBS/RPMI1640 and added and the cells were further cultured for 96 hr. After culturing, the viable cell number was measured using a cell number measurement WST-8 kit (Kishida Chemical Co., Ltd.). As a control, the measurement was performed under conditions free of the test compound. The cytotoxic activity of the compound of the present invention against each cell is shown in IC50 value in Table 4. The IC50 value is a concentration of the compound showing 50% cell survival rate when the cell survival rate thereof under compound untreated condition is 100%. It was calculated from the straight line connecting the cell survival rate at two points enclosing the 50% cell survival rate and the compound concentration. In addition, the tolerance (fold) was calculated by dividing the IC50 value in MDA-MB-436 w/o2 cells by the IC50 value in MDA-MB-436 cells.

[6] = test system: human AR-V7 positive castration-resistant prostate cancer 22Rv1 cell; assay: Cytotoxic action on 22Rv1 cells (WST-8, 96 hr); type: cell-based; conditions: 22Rv1, 96 hr
Description: as §1

SMILES: COC(=O)C[C@@H]1N=C(c2ccc(-c3ccc(C(=O)NCc4ccc(S(=O)(=O)Nc5ccc(C)c6c(C#N)c[nH]c56)cc4)cc3)cc2)c2c(sc(C)c2C)-n2c(C)nnc21 [Example 1, methyl [(6S)-4-{4′-[({4-[(3-cyano-4-methyl-1H-indol-7-yl)sulfamoyl]phenyl}methyl)carbamoyl][1,1′-biphenyl]-4-yl}-2,3,9-trimethyl-6H-thieno[3,2-f][1,2,4]triazolo[4,3-a][1,4]diazepin-6-yl]acetate]
- IC50 [1]: 6.6 nM
- IC50 [2]: 27 nM
- IC50 [3]: 0.026 nM
- tumor growth inhibitory rate ([4]; 4 mg/kg/day): 56** %
- tumor growth inhibitory rate ([4]; 12.5 mg/kg/day): 92** %
- IC50 [5]: 0.39 nM
- IC50 [6]: 0.71 nM

From patent publication US11890288B2, “Sulfonamide or sulfinamide compound having effect of inducing BRD4 protein degradation and pharmaceutical use thereof” (MITSUBISHI TANABE PHARMA CORPORATION, priority 2020, dated 2024)
